Assay results as given in ChEMBL document CHEMBL1201862, “PubChem BioAssay data set” (2004).
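The compound was tested at five concentrations on cells cultured in 96-well plates, with a 48-hour exposure period. Abbreviation: GI50, concentration required for 50% inhibition of growth.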 Calls of active or inactive are those of the source. Rule as the data show it: active = GI50 up to about 1.1 µM and inactive = higher.

Key:
Assay in all cases: NCI anticancer screen, dose series, 48 h
786-0 = system: 786-0
A549 = system: A549
ACHN = system: ACHN
BT-549 = system: BT-549
CAKI-1 = system: CAKI-1
CCRF-CEM = system: CCRF-CEM
COLO 205 = system: COLO 205
DU-145 = system: DU-145
EKVX = system: EKVX
HCC 2998 = system: HCC 2998
HCT-116 = system: HCT-116
HCT-15 = system: HCT-15
HL-60 = system: HL-60
HOP-92 = system: HOP-92
HT-29 = system: HT-29
IGROV-1 = system: IGROV-1
K562 = system: K562
KM12 = system: KM12
LOX IMVI = system: LOX IMVI
M14 = system: M14
MCF7 = system: MCF7
MDA-MB-231 = system: MDA-MB-231
MDA-MB-435 = system: MDA-MB-435
MDA-N = system: MDA-N
MOLT-4 = system: MOLT-4
Malme-3M = system: Malme-3M
NCI-H226 = system: NCI-H226
NCI-H23 = system: NCI-H23
NCI-H460 = system: NCI-H460
NCI-H522 = system: NCI-H522
NCI/ADR-RES = system: NCI/ADR-RES
OVCAR-3 = system: OVCAR-3
OVCAR-4 = system: OVCAR-4
OVCAR-5 = system: OVCAR-5
OVCAR-8 = system: OVCAR-8
PC-3 = system: PC-3
RXF 393 = system: RXF 393
SF-295 = system: SF-295
SF-539 = system: SF-539
SK-MEL-28 = system: SK-MEL-28
SK-MEL-2 = system: SK-MEL-2
SK-MEL-5 = system: SK-MEL-5
SK-OV-3 = system: SK-OV-3
SN12C = system: SN12C
SNB-19 = system: SNB-19
SNB-75 = system: SNB-75
SR = system: SR
SW-620 = system: SW-620
T47D = system: T47D
TK-10 = system: TK-10
U-251 = system: U-251
UACC-257 = system: UACC-257
UACC-62 = system: UACC-62
UO-31 = system: UO-31
A498 = system: A498
HOP-62 = system: HOP-62
RPMI-8226 = system: RPMI-8226
SF-268 = system: SF-268

COc1ccc(/N=C(/C[S+]([O-])c2ccc(C)cc2)C(F)(F)F)cc1 (stereo unspecified)
GI50 (786-0): > 100 µM (inactive) | GI50 (A549): 78 µM (inactive) | GI50 (ACHN): 50.6 µM (inactive) | GI50 (BT-549): > 100 µM (inactive) | GI50 (CAKI-1): > 100 µM (inactive) | GI50 (CCRF-CEM): 61.9 µM (inactive) | GI50 (COLO 205): > 100 µM (inactive) | GI50 (DU-145): > 100 µM (inactive) | GI50 (EKVX): > 100 µM (inactive) | GI50 (HCC 2998): 41 µM (inactive) | GI50 (HCT-116): > 100 µM (inactive) | GI50 (HCT-15): > 100 µM | GI50 (HL-60): 19.1 µM (inactive) | GI50 (HOP-92): > 100 µM (inactive) | GI50 (HT-29): > 100 µM (inactive) | GI50 (IGROV-1): > 100 µM (inactive) | GI50 (K562): 59.7 µM (inactive) | GI50 (KM12): 27.9 µM (inactive) | GI50 (LOX IMVI): > 100 µM (inactive) | GI50 (M14): > 100 µM (inactive) | GI50 (MCF7): > 100 µM (inactive) | GI50 (MDA-MB-231): > 100 µM (inactive) | GI50 (MDA-MB-435): > 100 µM (inactive) | GI50 (MDA-N): > 100 µM (inactive) | GI50 (MOLT-4): 53.3 µM (inactive) | GI50 (Malme-3M): > 100 µM (inactive) | GI50 (NCI-H226): > 100 µM (inactive) | GI50 (NCI-H23): > 100 µM (inactive) | GI50 (NCI-H460): > 100 µM (inactive) | GI50 (NCI-H522): > 100 µM (inactive) | GI50 (NCI/ADR-RES): > 100 µM (inactive) | GI50 (OVCAR-3): > 100 µM (inactive) | GI50 (OVCAR-4): 59.7 µM (inactive) | GI50 (OVCAR-5): > 100 µM (inactive) | GI50 (OVCAR-8): > 100 µM (inactive) | GI50 (PC-3): 26.5 µM (inactive) | GI50 (RXF 393): > 100 µM (inactive) | GI50 (SF-295): 56.2 µM (inactive) | GI50 (SF-539): > 100 µM (inactive) | GI50 (SK-MEL-28): > 100 µM (inactive) | GI50 (SK-MEL-2): 50.2 µM (inactive) | GI50 (SK-MEL-5): > 100 µM (inactive) | GI50 (SK-OV-3): > 100 µM (inactive) | GI50 (SN12C): > 100 µM (inactive) | GI50 (SNB-19): 71.8 µM (inactive) | GI50 (SNB-75): > 100 µM (inactive) | GI50 (SR): > 100 µM (inactive) | GI50 (SW-620): > 100 µM (inactive) | GI50 (T47D): > 100 µM (inactive) | GI50 (TK-10): > 100 µM (inactive) | GI50 (U-251): > 100 µM (inactive) | GI50 (UACC-257): > 100 µM (inactive) | GI50 (UACC-62): 10.6 µM (inactive) | GI50 (UO-31): 9.57 µM (inactive)

Cc1ccc(C(=O)c2[nH]c(Nc3ccc(Cl)cc3)c(C(=S)Nc3ccccc3)c2N)cc1
GI50 (786-0): 2.74 µM (inactive) | GI50 (A498): 13.6 µM (inactive) | GI50 (A549): 2.27 µM (inactive) | GI50 (ACHN): 3.27 µM (inactive) | GI50 (BT-549): 8.04 µM (inactive) | GI50 (CAKI-1): 8.67 µM (inactive) | GI50 (CCRF-CEM): 8.65 µM (inactive) | GI50 (COLO 205): 1.45 µM (inactive) | GI50 (DU-145): 8.05 µM (inactive) | GI50 (EKVX): 5.48 µM (inactive) | GI50 (HCC 2998): 2.29 µM (inactive) | GI50 (HCT-116): 3.72 µM (inactive) | GI50 (HCT-15): 10.7 µM | GI50 (HL-60): 44.4 µM (inactive) | GI50 (HOP-62): 4.41 µM (inactive) | GI50 (HOP-92): 12.9 µM (inactive) | GI50 (HT-29): 4.43 µM (inactive) | GI50 (IGROV-1): 4.41 µM (inactive) | GI50 (K562): 7.38 µM (inactive) | GI50 (KM12): 5.26 µM (inactive) | GI50 (LOX IMVI): 3.91 µM (inactive) | GI50 (M14): 12.9 µM (inactive) | GI50 (MCF7): 12.5 µM (inactive) | GI50 (MDA-MB-231): 10.1 µM (inactive) | GI50 (MDA-MB-435): 6.68 µM (inactive) | GI50 (MDA-N): 6.73 µM (inactive) | GI50 (MOLT-4): 12.1 µM (inactive) | GI50 (Malme-3M): 4.17 µM (inactive) | GI50 (NCI-H226): 14 µM (inactive) | GI50 (NCI-H23): 3.14 µM (inactive) | GI50 (NCI-H460): 4.2 µM (inactive) | GI50 (NCI-H522): 9.68 µM (inactive) | GI50 (NCI/ADR-RES): 4.37 µM (inactive) | GI50 (OVCAR-3): 11.3 µM (inactive) | GI50 (OVCAR-4): 1.97 µM (inactive) | GI50 (OVCAR-5): 11 µM (inactive) | GI50 (OVCAR-8): 4.68 µM (inactive) | GI50 (PC-3): 6.84 µM (inactive) | GI50 (RPMI-8226): 5.05 µM (inactive) | GI50 (RXF 393): 4.94 µM (inactive) | GI50 (SF-268): 5.78 µM (inactive) | GI50 (SF-295): 2.13 µM (inactive) | GI50 (SF-539): 5.3 µM (inactive) | GI50 (SK-MEL-28): 4.21 µM (inactive) | GI50 (SK-MEL-2): 14.5 µM (inactive) | GI50 (SK-OV-3): 14.2 µM (inactive) | GI50 (SN12C): 13.1 µM (inactive) | GI50 (SNB-19): 5.61 µM (inactive) | GI50 (SNB-75): 2.94 µM (inactive) | GI50 (SR): 2.05 µM (inactive) | GI50 (SW-620): 11.5 µM (inactive) | GI50 (T47D): 15.5 µM (inactive) | GI50 (TK-10): 5.36 µM (inactive) | GI50 (U-251): 3.01 µM (inactive) | GI50 (UACC-257): 18.7 µM (inactive) | GI50 (UACC-62): 14.4 µM (inactive) | GI50 (UO-31): 9.14 µM (inactive)
